Measurements reported in ChEMBL document CHEMBL4017516, “Sulfonium as a Surrogate for Ammonium: A New α7 Nicotinic Acetylcholine Receptor Partial Agonist with Desensitizing Activity” (J Med Chem, 2017).
The source made the active and inactive calls. The rule behind the calls is not given here.

How the values were obtained:
[1] = molecular target: T1, Neuronal acetylcholine receptor subunit alpha-7 (Homo sapiens, UniProt P36544); test: Silent agonist activity at human alpha7 nAChR expressed in Xenopus laevis oocytes assessed as induction of PNU-120596-stimulated peak current response at 10 uM administered for 12 secs followed by washout period for 181 secs by voltage clamp technique relative to acetylcholine; format: cell-based
[2] = molecular target: T1, Neuronal acetylcholine receptor subunit alpha-7; test: Silent agonist activity at human alpha7 nAChR expressed in Xenopus laevis oocytes assessed as induction of PNU-120596-stimulated peak current response at 100 uM administered for 12 secs followed by washout period for 181 secs by voltage clamp technique relative to acetylcholine; format: cell-based
[3] = molecular target: T1, Neuronal acetylcholine receptor subunit alpha-7; test: Partial agonist activity at human alpha7 nAChR expressed in Xenopus laevis oocytes assessed as induction of maximum current response administered for 12 secs followed by washout period for 181 secs by voltage clamp technique; format: cell-based
[4] = molecular target: T1, Neuronal acetylcholine receptor subunit alpha-7; test: Silent agonist activity at human alpha7 nAChR expressed in Xenopus laevis oocytes assessed as induction of PNU-120596-stimulated peak current response at 30 uM administered for 12 secs followed by washout period for 181 secs by voltage clamp technique relative to acetylcholine; format: cell-based
[5] = molecular target: T2, Neuronal acetylcholine receptor; alpha3/beta2 (Homo sapiens) (UniProt P17787+P32297); test: Agonist activity at human […] alpha3beta2 nAChR expressed in Xenopus laevis oocytes assessed as induction of current response at 30 uM administered for 6 secs followed by washout period for 241 secs by in presence of acetylcholine voltage clamp technique; format: cell-based
[6] = molecular target: T2, Neuronal acetylcholine receptor; alpha3/beta2 (Homo sapiens); test: Agonist activity at human ganglionic alpha3beta2 nAChR expressed in Xenopus laevis oocytes assessed as induction of current response at 30 uM administered for 6 secs followed by washout period for 241 secs by in presence of acetylcholine voltage clamp technique; format: cell-based
[7] = molecular target: T2, Neuronal acetylcholine receptor; alpha3/beta2 (Homo sapiens); test: Antagonist activity at human ganglionic alpha3beta2 nAChR expressed in Xenopus laevis oocytes assessed as inhibition of acetylcholine-induced current response at 100 uM administered for 6 secs followed by washout period for 241 secs by in presence of acetylcholine voltage clamp technique; format: cell-based
[8] = molecular target: T1, Neuronal acetylcholine receptor subunit alpha-7; test: Antagonist activity at human alpha7 nAChR expressed in Xenopus laevis oocytes assessed as inhibition of acetylcholine-induced current response administered for 12 secs followed by washout period for 181 secs by voltage clamp technique; format: cell-based
[9] = molecular target: T3, Neuronal acetylcholine receptor; alpha4/beta2 (Homo sapiens, UniProt P17787+P43681); test: Agonist activity at human alpha4beta2 nAChR expressed in Xenopus laevis oocytes assessed as induction of current response administered for 6 secs followed by washout period for 241 secs by voltage clamp technique; format: cell-based
[10] = Hydrolytic stability of compound in Ringers-D2O buffer at 8.4 mM at pH 7.2 up to 60 days by [1H]-NMR spectroscopy; format: physicochemical; conditions: pH 7.2, 1440 h, 8400 µM
[11] = molecular target: T2, Neuronal acetylcholine receptor; alpha3/beta2 (Homo sapiens); test: Antagonist activity at human […] alpha3beta2 nAChR expressed in Xenopus laevis oocytes assessed as inhibition of acetylcholine-induced current response at 30 uM administered for 6 secs followed by washout period for 241 secs by in presence of acetylcholine voltage clamp technique; format: cell-based
[12] = molecular target: T1, Neuronal acetylcholine receptor subunit alpha-7; test: Induction of human alpha7 nAChR desensitization expressed in Xenopus laevis oocytes at 100 uM pretreated for 30 secs followed by PNU-120596 administered for 10 secs by voltage clamp technique relative to acetylcholine; format: cell-based
[13] = molecular target: T1, Neuronal acetylcholine receptor subunit alpha-7; test: Partial agonist activity at human alpha7 nAChR expressed in Xenopus laevis oocytes assessed as induction of maximum current response at 100 uM administered for 12 secs followed by washout period for 181 secs by voltage clamp technique relative to acetylcholine; format: cell-based
[14] = Hydrolytic stability of compound in water at 8.4 mM up to 60 days by [1H]-NMR spectroscopy; format: physicochemical; conditions: buffer, 1440 h, 8400 µM
[15] = molecular target: T3, Neuronal acetylcholine receptor; alpha4/beta2; test: Antagonist activity at human alpha4beta2 nAChR expressed in Xenopus laevis oocytes assessed as inhibition of acetylcholine-induced current response administered for 6 secs followed by washout period for 241 secs by voltage clamp technique; format: cell-based
[16] = molecular target: T1, Neuronal acetylcholine receptor subunit alpha-7; test: Antagonist activity at human alpha7 nAChR expressed in Xenopus laevis oocytes assessed as inhibition of acetylcholine-induced current response at 300 uM administered for 12 secs followed by washout period for 181 secs by voltage clamp technique relative to acetylcholine; format: cell-based
[17] = molecular target: T1, Neuronal acetylcholine receptor subunit alpha-7; test: Partial agonist activity at human alpha7 nAChR expressed in Xenopus laevis oocytes assessed as induction of maximum current response at 10 to 300 uM administered for 12 secs followed by washout period for 181 secs by voltage clamp technique; format: cell-based

T1 sequence (P36544 whole entry): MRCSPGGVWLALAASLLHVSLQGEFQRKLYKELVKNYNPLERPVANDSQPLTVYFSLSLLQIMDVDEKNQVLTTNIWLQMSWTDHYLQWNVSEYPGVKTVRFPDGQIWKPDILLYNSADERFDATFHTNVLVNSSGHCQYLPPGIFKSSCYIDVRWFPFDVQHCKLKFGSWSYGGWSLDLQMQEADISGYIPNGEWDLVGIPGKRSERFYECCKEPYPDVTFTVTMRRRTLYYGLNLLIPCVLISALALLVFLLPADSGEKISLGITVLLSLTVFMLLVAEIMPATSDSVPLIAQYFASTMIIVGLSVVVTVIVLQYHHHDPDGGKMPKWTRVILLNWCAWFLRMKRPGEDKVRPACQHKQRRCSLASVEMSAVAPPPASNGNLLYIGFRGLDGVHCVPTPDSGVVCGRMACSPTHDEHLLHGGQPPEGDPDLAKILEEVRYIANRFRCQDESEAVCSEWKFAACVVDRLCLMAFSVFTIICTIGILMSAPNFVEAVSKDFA
T3 sequence (P17787 whole entry): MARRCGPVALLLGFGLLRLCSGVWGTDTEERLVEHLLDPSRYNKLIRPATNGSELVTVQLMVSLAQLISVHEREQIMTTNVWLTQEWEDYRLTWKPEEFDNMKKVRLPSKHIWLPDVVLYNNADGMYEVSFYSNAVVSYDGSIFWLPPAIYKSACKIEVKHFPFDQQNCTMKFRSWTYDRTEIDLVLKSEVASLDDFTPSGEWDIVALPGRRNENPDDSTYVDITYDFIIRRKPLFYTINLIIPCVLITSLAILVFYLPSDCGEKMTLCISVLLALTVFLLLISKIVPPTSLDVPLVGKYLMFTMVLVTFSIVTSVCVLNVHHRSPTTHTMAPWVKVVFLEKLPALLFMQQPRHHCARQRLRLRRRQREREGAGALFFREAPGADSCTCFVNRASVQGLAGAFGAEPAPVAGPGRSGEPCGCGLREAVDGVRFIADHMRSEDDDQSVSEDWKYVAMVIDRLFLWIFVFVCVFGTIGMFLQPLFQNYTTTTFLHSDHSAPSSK
T3 sequence (P43681 whole entry): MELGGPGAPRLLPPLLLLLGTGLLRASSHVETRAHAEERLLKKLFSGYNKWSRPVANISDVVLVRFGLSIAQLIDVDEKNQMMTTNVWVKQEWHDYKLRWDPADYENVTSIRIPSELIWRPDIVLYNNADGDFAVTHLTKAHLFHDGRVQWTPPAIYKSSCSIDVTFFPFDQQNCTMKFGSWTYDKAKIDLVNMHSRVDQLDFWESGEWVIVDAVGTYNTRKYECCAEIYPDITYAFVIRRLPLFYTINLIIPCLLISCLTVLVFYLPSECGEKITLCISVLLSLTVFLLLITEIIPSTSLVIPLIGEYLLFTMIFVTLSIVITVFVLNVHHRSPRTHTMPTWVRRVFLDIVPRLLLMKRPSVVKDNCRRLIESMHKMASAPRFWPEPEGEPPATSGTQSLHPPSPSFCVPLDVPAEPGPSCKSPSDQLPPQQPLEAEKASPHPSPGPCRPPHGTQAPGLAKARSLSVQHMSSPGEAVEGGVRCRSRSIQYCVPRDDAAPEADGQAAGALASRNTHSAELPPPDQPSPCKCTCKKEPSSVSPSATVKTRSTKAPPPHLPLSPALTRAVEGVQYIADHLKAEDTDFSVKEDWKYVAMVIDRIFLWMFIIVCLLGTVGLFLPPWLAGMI

Which Activity [1] does the source give for CC[N+]1(c2ccccc2)CCSCC1 here?
The Activity was “inactive”.

What about the Activity [2] of the same compound?
The Activity was “inactive”.

What about the Activity [3] of the same compound?
The Activity was “inactive”.

And the Activity [4]?
Its Activity is “inactive”.

Which fold change (FC) [1] does the source give for CC[S+]1CCN(c2ccccc2)CC1.O=S(=O)([O-])C(F)(F)F here?
The fold change (FC) was 5.

And the Activity [5]?
The Activity was “inactive”.

What about the fold change (FC) [2] of the same compound?
Its fold change (FC) is 25.

And the Activity [6]?
The Activity was “inactive”.

And the inhibition [7]?
Its inhibition is “Active”.

And the EC50 [3]?
Its EC50 is 40 µM.

And the IC50 [8]?
The IC50 was 73 µM.

What about the fold change (FC) [4] of the same compound?
Its fold change (FC) is 3.

And the Activity [9]?
The Activity was “inactive”.

What about the Stability [10] of the same compound?
The Stability was “Stable”.

And the inhibition [11]?
Its inhibition is “Active”.

And the Activity [12]?
The Activity was “Active”.

What about the fold change (FC) [13] of the same compound?
The fold change (FC) was 0.07.

And the Stability [14]?
The Stability was “Stable”.

What about the IC50 [15] of the same compound?
Its IC50 is 51 µM.

Which Activity [1] does the source give for CCN1CCN(c2ccccc2)CC1 here?
The Activity was “inactive”.

What about the inhibition [16] of the same compound?
Its inhibition is under 20%.

And the Activity [17]?
The Activity was “inactive”.

And the Activity [2]?
The Activity was “inactive”.

What about the Activity [4] of the same compound?
Its Activity is “inactive”.

And the fold change (FC) [13]?
The fold change (FC) was 0.

What does the source list for CC[N+]1(CC)CCN(c2ccccc2)CC1?
Activity [1]: Active; Activity [2]: Active; IC50 [8]: 55 µM; Activity [4]: Active; fold change (FC) [13]: 0.47
